“And” between values parts separate entries of the source, which are not always exact repeats. Equal values may be shown once. Read-outs that look alike come from different tables or passages of the source.
Columns and labels:
[1] = system: C[S+](CC[C@H](N)C(=O)[O-])C[C@H]1O[C@@H](n2cnc3c(N)ncnc32)[C@H](O)[C@@H]1O; assay: purified protein, by the assay type; details: pH 7.5; 23.0 °C
[2] = molecular target: HCoV-NL63 nsp10-nsp16 complex (Human coronavirus NL63, UniProt P0C6X5); assay: biochemical; format: biochemical
[3] = molecular target: HCoV-229E nsp10-nsp16 complex (Human coronavirus 229E, UniProt P0C6X1); assay: biochemical
[4] = molecular target: HCoV-HKU1 nsp10-nsp16 complex (Human coronavirus HKU1, UniProt P0C6X3); assay: biochemical
[5] = molecular target: HCoV-OC43 nsp10-nsp16 complex (Human coronavirus OC43, UniProt P0C6X6); assay: biochemical
[6] = molecular target: SARS-CoV-2 nsp10-nsp16 complex (Severe acute respiratory syndrome coronavirus 2, UniProt P0DTD1); assay: biochemical

Sequence of HCoV-HKU1 nsp10-nsp16 complex (P0C6X3 6854-7152 limits assumed): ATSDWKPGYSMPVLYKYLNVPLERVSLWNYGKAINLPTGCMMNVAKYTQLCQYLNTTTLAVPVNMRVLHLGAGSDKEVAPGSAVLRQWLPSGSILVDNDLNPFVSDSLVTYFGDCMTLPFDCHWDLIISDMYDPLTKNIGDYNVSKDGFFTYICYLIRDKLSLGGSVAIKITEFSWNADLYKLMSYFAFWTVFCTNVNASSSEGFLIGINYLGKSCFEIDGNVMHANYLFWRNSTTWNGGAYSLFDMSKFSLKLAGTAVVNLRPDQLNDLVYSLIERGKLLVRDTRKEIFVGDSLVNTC
Sequence of HCoV-HKU1 nsp10-nsp16 complex (P0C6X3 4291-4427 partner limits assumed): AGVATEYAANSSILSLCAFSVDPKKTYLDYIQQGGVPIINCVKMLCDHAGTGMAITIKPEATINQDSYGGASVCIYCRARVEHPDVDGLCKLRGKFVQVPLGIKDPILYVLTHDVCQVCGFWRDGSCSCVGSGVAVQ
Sequence of HCoV-OC43 nsp10-nsp16 complex (P0C6X6 6797-7095 limits assumed): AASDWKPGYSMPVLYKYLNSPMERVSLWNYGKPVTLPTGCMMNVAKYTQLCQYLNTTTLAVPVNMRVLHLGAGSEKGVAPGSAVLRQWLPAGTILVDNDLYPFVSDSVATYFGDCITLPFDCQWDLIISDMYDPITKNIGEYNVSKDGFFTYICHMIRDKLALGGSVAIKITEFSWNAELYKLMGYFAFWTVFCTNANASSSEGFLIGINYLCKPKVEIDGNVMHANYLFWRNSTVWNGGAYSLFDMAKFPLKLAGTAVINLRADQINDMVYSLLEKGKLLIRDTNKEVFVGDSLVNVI
Sequence of HCoV-OC43 nsp10-nsp16 complex (P0C6X6 4233-4369 partner limits assumed): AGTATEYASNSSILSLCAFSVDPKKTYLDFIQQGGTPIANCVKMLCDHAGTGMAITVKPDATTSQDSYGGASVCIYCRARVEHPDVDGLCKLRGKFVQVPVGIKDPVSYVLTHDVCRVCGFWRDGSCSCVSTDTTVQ
Sequence of HCoV-NL63 nsp10-nsp16 complex (P0C6X5 6430-6729 limits assumed): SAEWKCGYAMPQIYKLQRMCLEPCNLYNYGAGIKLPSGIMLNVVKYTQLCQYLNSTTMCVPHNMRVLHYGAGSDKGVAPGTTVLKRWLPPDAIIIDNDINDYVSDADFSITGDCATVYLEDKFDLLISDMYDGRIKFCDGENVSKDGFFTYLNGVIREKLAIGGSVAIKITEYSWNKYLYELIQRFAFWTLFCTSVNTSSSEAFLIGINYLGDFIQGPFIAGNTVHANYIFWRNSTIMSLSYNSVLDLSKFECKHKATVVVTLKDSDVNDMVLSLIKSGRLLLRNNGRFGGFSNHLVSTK
Sequence of HCoV-NL63 nsp10-nsp16 complex (P0C6X5 3909-4043 partner limits assumed): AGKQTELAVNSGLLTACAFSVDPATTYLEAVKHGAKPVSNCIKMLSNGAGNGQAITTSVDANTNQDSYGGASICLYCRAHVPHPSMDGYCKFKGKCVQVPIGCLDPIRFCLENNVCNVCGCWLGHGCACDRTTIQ
Sequence of HCoV-229E nsp10-nsp16 complex (P0C6X1 6459-6758 limits assumed): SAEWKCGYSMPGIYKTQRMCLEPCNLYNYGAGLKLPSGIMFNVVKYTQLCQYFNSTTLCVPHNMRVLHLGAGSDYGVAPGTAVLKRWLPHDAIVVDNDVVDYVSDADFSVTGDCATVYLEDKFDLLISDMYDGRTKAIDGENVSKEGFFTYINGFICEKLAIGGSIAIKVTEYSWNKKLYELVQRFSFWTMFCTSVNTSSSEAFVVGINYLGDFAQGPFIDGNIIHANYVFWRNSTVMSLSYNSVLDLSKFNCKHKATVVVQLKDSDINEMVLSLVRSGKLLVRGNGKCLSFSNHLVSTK
Sequence of HCoV-229E nsp10-nsp16 complex (P0C6X1 3934-4068 partner limits assumed): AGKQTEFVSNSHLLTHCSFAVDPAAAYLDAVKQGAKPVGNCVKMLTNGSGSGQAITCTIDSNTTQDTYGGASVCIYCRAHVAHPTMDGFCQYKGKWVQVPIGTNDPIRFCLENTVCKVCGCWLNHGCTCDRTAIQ

With “HCoV-HKU1 nsp10-nsp16 complex (Human coronavirus HKU1 (isolate N2))” as the molecule, how does the Km [1] read?
The Km was 4.8 ± 1.2 µM and 2.3 ± 0.03 µM.

With “SARS-CoV nsp10-nsp16 complex (Severe acute respiratory syndrome-related coronavirus)” as the molecule, how does the Km [1] read?
Its Km is 5.7 ± 1.1 µM and 2.6 ± 0.4 µM.

With “SARS-CoV-2 nsp10-nsp16 complex (Severe acute respiratory syndrome coronavirus 2)” as the molecule, how does the Km [1] read?
Its Km is 5.0 ± 0.7 µM and 2.8 ± 0.4 µM.

With “HCoV-OC43 nsp10-nsp16 complex (Human coronavirus OC43)” as the molecule, how does the Km [1] read?
The Km was 7.1 ± 0.8 µM and 2.9 ± 0.4 µM.

How did the Km [1] turn out when “HCoV-229E nsp10-nsp16 complex (Human coronavirus 229E)” was run?
Its Km is 1.8 ± 0.2 µM.

Which “fold lower IC50 with N7mGpppAUUAAA versus N7mGpppACCCCC” value ([2]; HCoV-NL63) does the source give for `Nc1ncnc2c1ncn2[C@@H]1O[C@H](CSCC[C@H](N)C(=O)O)[C@@H](O)[C@H]1O` [SAH, S-adenosylhomocysteine] here?
Its value is 30 fold.

What about the IC50 ([2]; IC50, HCoV-NL63, substrate RNA N7mGpppACCCCC 0.3 μM, 2 μM 3H-SAM) of the same molecule?
Its IC50 is 2400 ± 400 nM.

And the IC50 [3]?
The IC50 was 900 ± 200 nM.

And the IC50 [4]?
Its IC50 is 200 ± 50 nM.

And the IC50 ([4]; IC50, HCoV-HKU1, substrate RNA N7mGpppACCCCC 0.3 μM, 2 μM 3H-SAM)?
Its IC50 is 2100 ± 100 nM.

What about the IC50 [5] of the same molecule?
The IC50 was 1400 ± 300 nM.

And the IC50 ([5]; IC50, HCoV-OC43, substrate RNA N7mGpppACCCCC 0.3 μM, 2 μM 3H-SAM)?
Its IC50 is 4400 ± 1200 nM.

What about the IC50 [6] of the same molecule?
The IC50 was 2900 nM and 500 nM.
